Test results published in patent US20150346214A1, “DETECTION OF MEMBRANE PROTEINS” (priority 2012, published 2015).
Entries after “also recorded” stand apart in the source; their conditions may differ.

Tests used:
ammonia channel (AmtB) [1] = target: T1, ammonia channel (AmtB) (Escherichia coli, UniProt P69681); experiment: Gas-phase (collision-induced) unfolding IM-MS: stabilisation of AmtB by bound phospholipid; type: binding, E. coli; conditions: +15 charge state, versus apo form
Protocol: (§1) IM-MS was used to resolve individual phospholipid-bound states of membrane proteins, in folded conformations, devoid of the complication of the lipid bilayer. Bound phospholipids were then ranked based on their ability to prevent gas-phase unfolding. Combining the IM-MS data for the three protein complexes with molecular dynamic (MD) simulations, probable lipid binding sites were then identified.
Ion mobility measurements were performed on a modified Synapt G1 HDMS instrument with the travelling-wave on mobility cell replaced by an 18-cm drift cell with radial RF on confinement and a linear voltage gradient to direct ions along the axis of transmission to the time-of-flight (TOF) mass analyser. Ion mobility mass spectrometer was typically set to a source pressure of 5-7 mBar, capillary voltage of 1.4-1.7 kV, capillary nanoflow of 0.03-0.2 mBar and argon as collision gas with flow rate set to 5-8 mL/min (˜6.6-6.7 e-2 mBar). Collision voltage ranged from 2-240 V with measurements taken at 5 V and 2 V steps for monitoring gas-phase unfolding of membrane and soluble protein complexes, respectively. The sample and extraction cone and trap bias voltages, quadrupole profile, and collision gas pressure were optimized for maximal ion intensity of the target membrane protein complex. Helium was the drift cell gas and set to a pressure of ˜1.6-1.8 Torr (40 ml/min flow rate). Pusher time, pulse width and TDC inhibit were set to 180, 7 and 7 μs, respectively. The ion guide/source (300 ms^−1, 10 V), trap (300 ms^−1, 0.2 V) and transfer (100 ms^−1, 10 V) travelling wave velocities and wave heights were kept constant. The mobility release time was set at 200 μs with a trap voltage of 30 V and extract voltage of 10 V. Pressure and temperature of the ion mobility cell was measured directly. Ion drift time (td) was determined as described in Bush et al (Analytical Chemistry, 2010, 82, 9557-.9565).
Ion mobility data were imported using a custom script provided by Waters at an m/z resolution of four in drift data and one in mass spectra for fitting. Mass spectra were smoothed and theoretical mass spectra were fitted as outlined above. A standardized integration window was employed for extracting arrival time distributions (ATD) using a resolution (R=[…]) of 1000 and a height cut-off of 25% for the modelled Gaussian to the respective m/z peak. […]
To extract quantitative values for the effects of phospholipid binding on unfolding pathways, an established equilibrium unfolding model, used extensively in solution studies involving chemical denaturation, was applied. […] By comparing the apo form of the protein with lipid bound states, the average stabilisation was calculated by fitting the unfolding pathway for the most abundant charge state, identifying four distinct intermediate states. […]

[2] = target: T2, mechanosensitive channel of large conductance (MscL) (Mycobacterium tuberculosis, UniProt P9WJN5); experiment: Phospholipid binding to MscL resolved by native MS / IM-MS in C8E4; conditions: optimised P:L:D ratio of Table 2
T2 sequence (P9WJN5 1-151): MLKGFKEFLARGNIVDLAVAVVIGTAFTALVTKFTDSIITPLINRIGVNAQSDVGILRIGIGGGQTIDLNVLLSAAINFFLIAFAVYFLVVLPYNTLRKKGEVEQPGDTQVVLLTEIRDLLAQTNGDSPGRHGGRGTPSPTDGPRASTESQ

Aquaporin Z (AQPZ) [3] = target: T3, Aquaporin Z (AQPZ) (Escherichia coli, UniProt P60844); experiment: Phospholipid binding to AQPZ resolved by native MS / IM-MS in C8E4; parameters: species or system E. coli; conditions: AQPZ in C8E4; optimised P:L:D ratio of Table 2
T3 sequence (P60844 whole entry): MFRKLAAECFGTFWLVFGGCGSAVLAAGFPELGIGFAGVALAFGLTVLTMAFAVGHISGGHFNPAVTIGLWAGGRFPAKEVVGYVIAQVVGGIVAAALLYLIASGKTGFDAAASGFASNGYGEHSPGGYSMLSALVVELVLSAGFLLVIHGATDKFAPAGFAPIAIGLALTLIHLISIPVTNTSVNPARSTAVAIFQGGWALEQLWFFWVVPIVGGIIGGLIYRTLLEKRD

ammonia channel (AmtB) [4] = target: T1, ammonia channel (AmtB); experiment: Phospholipid binding to AmtB resolved by native MS / IM-MS in C8E4; parameters: species or system E. coli; conditions: for # Bound (number of resolvable phospholipids bound): AmtB in C8E4, optimised P:L:D ratio of Table 2; for extent of phospholipid binding to AmtB: in words, co-transport into the gas phase
Aquaporin Z (AQPZ) [5] = target: T3, Aquaporin Z (AQPZ); experiment: Gas-phase (collision-induced) unfolding IM-MS: stabilisation of AQPZ by bound phospholipid; type: binding, E. coli; conditions: +13 charge state, versus apo form
Protocol: as §1
Ion mobility measurements were performed on a modified Synapt G1 HDMS instrument with the travelling-wave on mobility cell replaced by an 18-cm drift cell with radial RF on confinement and a linear voltage gradient to direct ions along the axis of transmission to the time-of-flight (TOF) mass analyser. […] The mobility release time was set at 200 μs with a trap voltage of 30 V and extract voltage of 10 V. Pressure and temperature of the ion mobility cell was measured directly. Ion drift time (td) was determined as described in Bush et al (Analytical Chemistry, 2010, 82, 9557-.9565). […]
To extract quantitative values for the effects of phospholipid binding on unfolding pathways, an established equilibrium unfolding model, used extensively in solution studies involving chemical denaturation, was applied. […]

T1 sequence (P69681 26-428): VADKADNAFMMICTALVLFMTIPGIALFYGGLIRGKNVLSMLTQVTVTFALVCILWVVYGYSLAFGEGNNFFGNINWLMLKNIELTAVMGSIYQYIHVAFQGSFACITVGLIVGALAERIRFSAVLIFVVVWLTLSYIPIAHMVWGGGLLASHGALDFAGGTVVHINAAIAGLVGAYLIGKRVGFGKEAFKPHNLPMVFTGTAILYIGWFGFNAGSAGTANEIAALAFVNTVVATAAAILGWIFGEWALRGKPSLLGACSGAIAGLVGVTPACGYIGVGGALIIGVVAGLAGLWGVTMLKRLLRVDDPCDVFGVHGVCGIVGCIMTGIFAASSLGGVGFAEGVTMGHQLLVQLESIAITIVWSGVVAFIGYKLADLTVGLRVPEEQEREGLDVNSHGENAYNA

Molecule | average stabilisation of AmtB by bound phospholipid (resistance to gas-phase unfolding) (ammonia channel (AmtB) [1]) | # Bound (number of resolvable phospholipids bound) [2] | # Bound (number of resolvable phospholipids bound) (Aquaporin Z (AQPZ) [3]) | # Bound (number of resolvable phospholipids bound) (ammonia channel (AmtB) [4]) | extent of phospholipid binding to AmtB (ammonia channel (AmtB) [4]) | average stabilisation of AQPZ by bound phospholipid (resistance to gas-phase unfolding) (Aquaporin Z (AQPZ) [5]) | bound phospholipid molecules (ammonia channel (AmtB) [4]; AmtB, moderate collision activation 175 V (FIG. 7a))
CCCCCCCC/C=C\CCCCCCCC(=O)O[C@H](COC(=O)CCCCCCCCCCCCCCC)COP(=O)(O)O [PA, 1-palrnitoyl-2-oleoyl-sn-glycero-3-phosphate (16:0-18:1)] | not correlated with significant stabilisation | 1 | 2 | 3 | extensive |  | 
CCCCCCCC/C=C\CCCCCCCC(=O)O[C@H](COC(=O)CCCCCCCCCCCCCCC)COP(=O)(O)OC[C@H](N)C(=O)O [PS, 1-palmitoyl-2-oleoyl-sn-glycero-3-phospho-L-serine (16:0-18:1)] | not correlated with significant stabilisation | 2 | 3 | 3 | extensive |  | 
Cardiolipin (E. coli) [CDL] | significant stabilisation | 1 | 1 | 1 | only low populations | substantial increase in protein stability compared to all other phospholipids; also recorded: stabilises AQPZ significantly | 
L-α-phosphatidylglycerol (E. coli) [PG] | dramatic increase in stabilisation; also recorded: significant stabilisation | 2 | 3 | 4 |  |  | one to four
